Data set [1] concerns NCI-H1975, a human non-small cell lung cancer cell. As to the kind of experiment: Proliferation test of anchorage-independent cells. The class given is cell-based. To be noted: 168 h, NCI-H1975, soft agarose, 7 days, CellTiter-Blue. On the procedure: (§1) 2. Proliferation Test of Anchorage-Independent Cells
(§2) NCI-H1975, a human non-small cell lung cancer cell, and BT474, a human breast cancer cell line, were incubated with RPIM-1640 or DMEM medium supplemented with 10% fetal bovine serum (FBS) in a cell incubator (37° C., 5% CO2). In the test of the compounds, the coated substrate with a concentration of 0.6% was used. The cells were screened with 0.3% low melting point agarose, then plated into 96-well plates with a density of 10,000 cells per well (100 μL). Starting from 10 mM, the compounds were diluted in a gradient of 3 times. For each concentration, 2 μL of the solution was taken and added into 98 μL of medium, then 5.3 μL of the mixture was added into the cell culture medium (where the final concentration of DMSO was 0.1%, v/v). After one week (7 days) of treatment, 20 μL of CellTiter-Blue®reagent (Promega) was added, incubated at 37° C. for 4 h. The fluorescent signal was read on Envison (Perkin Elmer).

In data set [2] the test system is BT474, a human breast cancer cell line. As to the kind of experiment: Proliferation test of anchorage-independent cells. The class given is cell-based. The conditions noted are these: BT-474, 168 h, BT474, soft agarose, 7 days, CellTiter-Blue. On the procedure: as §1, §2
Another data set concerns the target HER2 (Homo sapiens (Human), UniProt P04626). Description: In vitro enzymology test (HTRF kinase activity). Format: biochemical. To be noted: read-out: Enzyme activity (IC50 nM) HER2. An excerpt:
1. The Method for In Vitro Enzymology Test
EGFR, EGFR (T790M, L858R), HER2 kinase were expressed and purified through an insect cell expression system by the Department of Biology, Centaurus Biopharma, Beijing, or purchased from commercially available products.
The platform for testing the kinase activity of EGFR, EGFR (T790M, L858R) and HER2 was established based on the homogeneous time-resolved fluorescence (HTRF) method provided by Cisbio Bioassays, and the activity of the compounds was determined with the platform. […]. And 2.5 μL of the mixture was taken, added into 384-well plates (OptiPlate-384, PerkinElmer), then 2.5 μL of kinase was added, mixed thoroughly by centrifuge. Then 5 μL of ATP and TK Substrate-biotin were added to initiate the reaction. The 384-well plates were incubated at 23° C. in an incubator for a certain period of time, then 5 μL of Eu3^+-Cryptate labeled TK-Antibody and 5 μL of streptavidin-XL665 were added to stop the reaction. After 1 h incubation in an incubator, the fluorescence value was read on Envision (PerkinElmer). The IC50 value of the compound was calculated with the software GraphPad Prism 5.0.

A short description of data set [3]: Pharmacokinetics test on rats. The conditions noted are these: rat, po; male rats, gavage, single dose 5 mg/kg, plasma. Format: in vivo. On the procedure: Pharmacokinetics Test on Rats
In this study, 6 healthy adult male rats (from Beijing Vital River Laboratory Animal Technology Co., Ltd.) were used. The animals were fast overnight before the experiment. The fasting period was from 12 h prior to the administration, till 4 h after the administration. Drug administration was performed through gavage at a single dose of 5 mg/kg. The compounds to be tested were dissolved in 20% aqueous solution of sulfobutyl-β-cyclodextrin (SBE). Blood samples were collected 0.25, 0.5, 1, 2, 4, 6, 8 and 24 hours after drug administration. During blood sampling, the animals were lightly anesthetized with isoflurane, and approximately 0.5 mL whole blood was collected from retro-orbital venous sinus, placed into tubes that contain heparin as anticoagulant. The samples were centrifuged at 4° C., 4000 rpm for 5 min. The plasma was transferred into centrifuge tubes, and stored at −80° C. till being analyzed. The drug concentration in the plasma was quantitatively analyzed with liquid chromatography-tandem mass spectrometry (LC-MS/MS). From the analysis result of the samples, the pharmacokinetic parameter of the compounds was calculated with WinNonlin (WinNonlin Professional, version […]).

Chain of HER2 (P04626 23-1255): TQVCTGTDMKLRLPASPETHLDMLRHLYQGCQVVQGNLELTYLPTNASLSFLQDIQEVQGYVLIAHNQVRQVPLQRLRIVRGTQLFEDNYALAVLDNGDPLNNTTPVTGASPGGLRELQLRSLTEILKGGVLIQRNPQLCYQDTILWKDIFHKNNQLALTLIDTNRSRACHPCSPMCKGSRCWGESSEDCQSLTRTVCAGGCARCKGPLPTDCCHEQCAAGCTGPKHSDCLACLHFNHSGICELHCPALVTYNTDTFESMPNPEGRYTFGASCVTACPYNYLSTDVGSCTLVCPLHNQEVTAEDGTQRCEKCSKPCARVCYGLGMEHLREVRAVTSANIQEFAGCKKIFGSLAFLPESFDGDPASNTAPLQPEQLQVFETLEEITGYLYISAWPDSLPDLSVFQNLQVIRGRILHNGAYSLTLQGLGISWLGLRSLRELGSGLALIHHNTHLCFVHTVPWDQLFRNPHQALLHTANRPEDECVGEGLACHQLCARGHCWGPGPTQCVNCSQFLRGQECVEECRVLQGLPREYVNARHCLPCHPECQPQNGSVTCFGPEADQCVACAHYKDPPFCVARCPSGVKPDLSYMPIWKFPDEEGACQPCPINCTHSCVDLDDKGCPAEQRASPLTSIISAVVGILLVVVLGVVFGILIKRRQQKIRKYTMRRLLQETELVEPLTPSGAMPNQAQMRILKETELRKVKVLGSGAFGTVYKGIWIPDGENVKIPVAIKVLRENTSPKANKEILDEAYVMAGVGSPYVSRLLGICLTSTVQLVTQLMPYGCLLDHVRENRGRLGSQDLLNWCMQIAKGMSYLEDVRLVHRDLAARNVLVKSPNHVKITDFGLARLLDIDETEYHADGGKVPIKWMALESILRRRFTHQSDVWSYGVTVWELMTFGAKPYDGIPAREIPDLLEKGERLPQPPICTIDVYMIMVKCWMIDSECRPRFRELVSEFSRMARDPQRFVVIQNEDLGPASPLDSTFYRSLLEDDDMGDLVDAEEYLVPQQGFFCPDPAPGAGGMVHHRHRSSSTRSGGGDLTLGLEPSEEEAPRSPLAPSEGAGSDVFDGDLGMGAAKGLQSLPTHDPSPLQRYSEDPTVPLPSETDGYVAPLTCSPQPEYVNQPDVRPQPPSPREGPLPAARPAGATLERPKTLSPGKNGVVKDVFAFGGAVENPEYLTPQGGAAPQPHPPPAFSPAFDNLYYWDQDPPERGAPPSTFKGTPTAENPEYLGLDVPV

The molecule `C=CC(=O)N1CC(Nc2cc3c(Nc4ccc(F)c(Cl)c4)ncnc3cc2OC)C1` [Example 1, N^6-(1-acryloylazetidin-3-yl)-N^4-(3-chloro-4-fluorophenyl)-7-methoxyquinazoline-4,6-diamine] showed an IC50 in data set [1] of 21.8 nM. In data set [2], this molecule displayed an IC50 of 4.2 nM. The IC50 on HER2 amounted to 0.5 nM. In data set [3], the AUC(0-inf) stood at 1350 ng·h/mL, the concentration peaked (Cmax) at 588 ng/mL, the Tmax was 0.5 h and the half-life was 1.3 h.

Take `C=CC(=O)N1CCC(Nc2cc3c(Nc4ccc(F)c(Cl)c4)ncnc3cc2OC)CC1` [Example 2, N^6-(1-acryloylpiperidin-4-yl)-N^4-(3-chloro-4-fluorophenyl)-7-methoxyquinazoline-4,6-diamine]: half-maximal inhibition in data set [1] (IC50) required 14 nM. The molecule also returned an IC50 in data set [2] of 2.1 nM. Further, on HER2, the IC50 stood at 0.2 nM. Further, in data set [3], the AUC(0-inf) turned out to be 11000 ng·h/mL, the peak level (Cmax) was 1970 ng/mL, the Tmax worked out at 1 h and the half-life was 2.39 h.

For the molecule `C=CC(=O)N1CC(Nc2cc3c(Nc4ccc(F)c(Cl)c4)ncnc3cc2O[C@H]2CCOC2)C1` [Example 3, (S)—N^6-(1-acryloylazetidin-3-yl)-N^4-(3-chloro-4-fluorophenyl)-7-(tetrahydrofuran-3-yloxy)quinazoline-4,6-diamine], the results for the IC50 (in data set [1]; in data set [2]; on HER2) were 31.4 nM, 5.1 nM and 0.3 nM, respectively.

Take `C=CC(=O)N1CCC(Nc2cc3c(Nc4ccc(F)c(Cl)c4)ncnc3cc2O[C@H]2CCOC2)CC1` [Example 4, (S)—N^6-(1-acryloylpiperidin-4-yl)-N^4-(3-chloro-4-fluorophenyl)-7-(tetrahydrofuran-3-yloxy)quinazoline-4,6-diamine]: the IC50 in data set [1] came out at 25.6 nM; in data set [2] it was 1.6 nM; on HER2, 0.4 nM.

Take `C=CC(=O)N1CCC(Nc2cc3c(Nc4ccc(OCc5ccccn5)c(Cl)c4)ncnc3cc2OC)CC1` [Example 8, 1-(4-(4-(3-chloro-4-(pyridin-2-ylmethoxy)phenylamino)-7-methoxyquinazoline-6-ylamino)piperidin-1-yl)prop-2-ene-1-one]: the IC50 in data set [1] was 244 nM; in data set [2], 62.1 nM; on HER2 it was 1.2 nM.

Turning to `C=CC(=O)N1CC(Nc2cc3c(Nc4cccc(C(C)=O)c4)ncnc3cc2OC)C1` [Example 13, N^4-(3-acetylphenyl)-N^6-(1-acryloylazetidin-3-yl)-7-methoxyquinazoline-4,6-diamine], the IC50 on HER2 worked out at 0.5 nM.

As to `C=CC(=O)N1CC(Nc2cc3c(Nc4cccc(Br)c4)ncnc3cc2OC)C1` [Example 14, N^6-(1-acryloylazetidin-3-yl)-N^4-(3-bromophenyl)-7-methoxyquinazoline-4,6-diamine], the IC50 in data set [1] amounted to 59.3 nM; in data set [2] it was 4.6 nM; at HER2 it was 0.2 nM.

Turning to `C=CC(=O)N1CCC(Nc2cc3c(Nc4cccc(Br)c4)ncnc3cc2OC)CC1` [Example 15, N^6-(1-acryloylpiperidin-4-yl)-N^4-(3-bromophenyl)-7-methoxyquinazoline-4,6-diamine], the IC50 is 56 nM in data set [1], 4.2 nM in data set [2] and 0.2 nM at HER2.

In the case of `C=CC(=O)N1CC(Nc2cc3c(Nc4ccc(F)c(Cl)c4)ncnc3cc2OCCOC)C1` [Example 16, N^6-(1-acryloylazetidin-3-yl)-N^4-(3-chloro-4-fluorophenyl)-7-(2-methoxyethoxy)quinazoline-4,6-diamine], the IC50 was 32.4 nM in data set [1], 8.7 nM in data set [2] and 0.3 nM at HER2.

For `C=CC(=O)N1CCC(Nc2cc3c(Nc4ccc(F)c(Cl)c4)ncnc3cc2OCCOC)CC1` [Example 17, N^6-(1-acryloylpiperidin-4-yl)-N^4-(3-chloro-4-fluorophenyl)-7-(2-methoxyethoxy)quinazoline-4,6-diamine], the IC50 in data set [1] came to 71.5 nM; in data set [2] it was 4.7 nM; on HER2 it was 0.4 nM.

Consider `C=CC(=O)N1CC(Sc2cc3c(Nc4ccc(F)c(Cl)c4)ncnc3cc2OC)C1` [Example 19, 6-(1-acryloylazetidin-3-yl)-thio-N-(3-chloro-4-fluorophenyl)-7-methoxyquinazoline-4-amine], for which the IC50 came to 274 nM in data set [1] and 97.1 nM in data set [2].

For the origin of these results see patent publication US9725439B2, “Quinazoline derivative and preparation method therefor” (CHIA TAI TIANQING PHARMACEUTICAL GROUP CO., LTD., priority 2013, dated 2017).
